Test results from patent publication US9592186B2, “Topical compositions and methods for skin lightening” (Avon Products, Inc., priority 2014, dated 2017).

Tested on: Human epidermal melanocytes from dark-pigmented skin
Test: Melanin absorbance (pigmentation) in cultured human epidermal melanocytes after 8 days of incubation
Assay type: cell-based
Settings: for effect on pigmentation (in words): summary of Table 1; for % Pigmentation (percent change of melanin absorbance relative to vehicle control): 8 days incubation, absorption at 405 nm
Method: The Compound of Formula (II) was examined for its ability to reduce pigmentation in vitro in human melanocytes. Human epidermal melanocytes from dark-pigmented skin were seeded in 6-well dishes and grown using commercially available Medium 254, a sterile, liquid medium prepared with 200 μM calcium chloride for the culture of human epidermal melanocytes, supplemented with 1% Penicillin/Streptomycin and 1% Human Melanocyte Growth Supplement. Corresponding controls were maintained without histamine, Diphenylhydramine HCl and Compound II. Four replicates were tested for each combination. After 8 days of incubation, melanin was collected and processed by washing the wells with IX phosphate-buffered saline (PBS), followed by addition of 200 μL of 2M NaOH to three of the four replicates, which are then scraped, pooled and boiled at 80° C. for an hour. Melanin absorption was then measured at 405 nm using a spectrophotometer.
A larger (positive or negative) percent change indicates a larger increase or reduction in melanin.

Row | SMILES | effect on pigmentation (in words) (at both concentrations tested (0.001% and 0.0001%)) | % Pigmentation (percent change of melanin absorbance relative to vehicle control) (concentration 0.0001%) [%] | % Pigmentation (percent change of melanin absorbance relative to vehicle control) (concentration 0.001%) [%] | effect on pigmentation (in words) (5 μM)
1 | CC(=O)c1ccc(OCC(=O)NCC(c2ccco2)N2CCCCC2)cc1 (stereo not shown) [Compound (II)] | effective to reduce pigmentation | −10.40 | −40.83 | –
2 | NCCc1c[nH]cn1 [Histamine, reference compound] | – | – | – | significant increase in pigmentation
